From patent publication US20240197869A1, “HYPERACTIVATORS OF MAMMALIAN DENDRITIC CELLS” (Corner Therapeutics, Inc., priority 2021, published 2024)

Legend:
[1] = system: human monocyte-derived dendritic cells (moDCs); assay: DAMP screen: viability of human moDCs (CellTiter-Glo); settings: 2 days, relative to LPS-treated moDCs
Protocol: Danger-Associated Molecular Pattern (DAMP) Screen. After 6 days of differentiation into moDC, cells were collected and counted. Cells were plated at 100,000 cells/well in R10 media in 96-well flat bottom tissue culture-treated plates. LPS, serotype O55:B5 (Enzo Life Sciences) was added to a final concentration of 1 μg/mL in each well. […] Cells were incubated at 37° C., 5% CO2 for two days. Cell cultures were then used for endpoint analyses.
Endpoint Analyses. After culturing moDCs with PAMPs and DAMPs for two days, supernatant and cell samples were collected for analysis.
Quantification of Cell Viability. Cell viability was assessed by quantifying the presence of ATP as an indicator of metabolically active cells using the CellTiter-Glo Luminescent Cell Viability Assay (Promega). Metabolic activity was assessed following manufacturer's instructions. The CellTiter-Glo reagent was mixed with the cell pellets and remaining supernatant, and transferred to a white, opaque 96-well plate. Luminescence was measured on all wavelengths on a Spectramax iD3 plate reader (Molecular Devices) using an integration time of 500 ms. Percent viability was calculated relative to the control condition of moDCs treated with LPS.

[2] = system: human monocyte-derived dendritic cells (moDCs); assay: DAMP screen: IL-1β secretion by LPS-activated human moDCs (ELISA); type: cell-based; settings: 41.3 μM lipid + LPS 1 μg/mL, 2 days; Table 1-2
Protocol: Danger-Associated Molecular Pattern (DAMP) Screen.
Quantification of IL-1beta Secretion. IL-1beta secretion was assessed using the ELISA MAX Deluxe Set Human IL-1beta kit (Biolegend). ELISAs were performed according to manufacturer's instructions with the following modifications: i) total sample volume for incubation was reduced from […] the top standard was prepared at […], with two-fold dilutions to […]; and iii) sample incubation was completed overnight at 4 C on an orbital shaker. […] To determine IL-1beta concentration in supernatants, sample IL-1beta concentrations were interpolated using a standard curve via 4PL analysis on GraphPad Prism 9 (GraphPad Software). The interpolated results of samples were then adjusted for any dilutions made to the supernatant.

[3] = 41.3 μM lipid + LPS 1 μg/mL, Table 1-2
[4] = 82.5 μM lipid + LPS 1 μg/mL, Table 1-1

SMILES | Relative Viability (%) ± SD [1, 3] | Relative Viability (%) ± SD [1, 4] | IL-1β secretion [2]
CCCCCCCCCCCCCCCC(=O)O[C@H](CO)COP(=O)([O-])OCC[N+](C)(C)C [2-16:0 LYSO PC, 1-hydroxy-2-palmitoyl-sn-glycero-3-phosphocholine] | 87.2% | 43.9% | 93.0 pg/mL
CCCCCCCCCCCCCCCCCC(=O)O[C@H](CO)COP(=O)([O-])OCC[N+](C)(C)C [2-18:0 LYSO PC, 2-stearoyl-sn-glycero-3-phosphocholine] | 65.3% | 11.5% | 225.0 pg/mL
CCCCCCCC/C=C\CCCCCCCC(=O)O[C@H](CO)COP(=O)([O-])OCC[N+](C)(C)C [2-18:1 Δ9 LYSO PC, 1-hydroxy-2-oleoyl-sn-glycero-3-phosphocholine] | 100.6% | 97.7% | 45.0 pg/mL
CCCCCC(=O)OC[C@@H](O)COP(=O)([O-])OCC[N+](C)(C)C [06:0 LYSO PC] | 96.1% | 92.8% | 48.2 pg/mL
CCCCCCC(=O)OC[C@@H](O)COP(=O)([O-])OCC[N+](C)(C)C [07:0 LYSO PC] | 97.9% | 93.9% | 36.0 pg/mL
CCCCCCCC(=O)OC[C@@H](O)COP(=O)([O-])OCC[N+](C)(C)C [08:0 LYSO PC] | 96.7% | 95.3% | 32.2 pg/mL
CCCCCCCCC(=O)OC[C@@H](O)COP(=O)([O-])OCC[N+](C)(C)C [09:0 LYSO PC] | 98.2% | 95.4% | 31.3 pg/mL
CCCCCCCCCCC(=O)OC[C@@H](O)COP(=O)([O-])OCC[N+](C)(C)C [11:0 LYSO PC] | 94.9% | 92.8% | 39.3 pg/mL
CCCCCCCCCCCCC(=O)OC[C@@H](O)COP(=O)([O-])OCC[N+](C)(C)C [13:0 LYSO PC, 1-tridecanoyl-2-hydroxy-sn-glycero-3-phosphocholine] | 93.9% | 93.2% | 80.7 pg/mL
CCCCCCCCCCCCCCCC(=O)O[C@H](COC(=O)CCCCCCCCCCCCC)COP(=O)([O-])OCC[N+](C)(C)C [14:0-16:0 PC] | 97.1% | 90.8% | 32.7 pg/mL
CCCCCCCCCCCCCCCCCC(=O)O[C@H](COC(=O)CCCCCCCCCCCCC)COP(=O)([O-])OCC[N+](C)(C)C [14:0-18:0 PC] | 100.0% | 90.5% | 24.0 pg/mL
CCCCCCCCCCCCCCC(=O)OC[C@@H](O)COP(=O)([O-])OCC[N+](C)(C)C [15:0 LYSO PC, 1-pentadecanoyl-2-hydroxy-sn-glycero-3-phosphocholine] | 90.8% | 65.4% | 150.3 pg/mL
CCCCCCCCCCCCCCCC(=O)OC[C@@H](O)COP(=O)([O-])OCC[N+](C)(C)C [16:0 LYSO PC, 1-palmitoyl-2-hydroxy-sn-glycero-3-phosphocholine] | 87.2% | 44.7% | 97.4 pg/mL
